Results from US11013779B2, “Small molecule therapeutic inhibitors against picornaviruses, caliciviruses, and coronaviruses” (Kansas State University Research Foundation, priority 2016, dated 2021).

Key:
Factor Xa = Factor Xa (Homo sapiens, UniProt P00742); format: biochemical
plasmin = plasmin (Homo sapiens, UniProt P00747); format: biochemical
trypsin = trypsin (Homo sapiens, UniProt P07477); format: biochemical
thrombin = thrombin (Homo sapiens, UniProt P00734); format: biochemical
α-chymotrypsin = format: biochemical, human

Chain of Factor Xa (P00742 235-488 limits assumed): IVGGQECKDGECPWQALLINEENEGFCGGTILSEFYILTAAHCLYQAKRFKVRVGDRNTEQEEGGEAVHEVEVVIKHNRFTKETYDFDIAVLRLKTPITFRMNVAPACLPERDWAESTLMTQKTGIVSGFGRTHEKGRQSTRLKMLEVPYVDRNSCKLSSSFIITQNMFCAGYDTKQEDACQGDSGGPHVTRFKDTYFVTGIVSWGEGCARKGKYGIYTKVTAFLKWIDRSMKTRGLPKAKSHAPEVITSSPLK
Chain of Factor Xa (P00742 41-179 partner limits assumed): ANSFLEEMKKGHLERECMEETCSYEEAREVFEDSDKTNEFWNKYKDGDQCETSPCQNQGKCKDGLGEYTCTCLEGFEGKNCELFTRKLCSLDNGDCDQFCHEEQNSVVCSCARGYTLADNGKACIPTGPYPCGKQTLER
Chain of plasmin (P00747 581-810 limits assumed): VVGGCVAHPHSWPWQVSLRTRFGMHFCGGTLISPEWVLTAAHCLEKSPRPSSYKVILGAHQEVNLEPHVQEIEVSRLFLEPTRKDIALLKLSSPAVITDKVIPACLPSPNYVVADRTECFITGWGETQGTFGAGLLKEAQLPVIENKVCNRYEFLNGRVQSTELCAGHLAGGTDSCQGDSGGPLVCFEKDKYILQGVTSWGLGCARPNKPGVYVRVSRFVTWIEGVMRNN
Chain of plasmin (P00747 97-580 partner limits assumed): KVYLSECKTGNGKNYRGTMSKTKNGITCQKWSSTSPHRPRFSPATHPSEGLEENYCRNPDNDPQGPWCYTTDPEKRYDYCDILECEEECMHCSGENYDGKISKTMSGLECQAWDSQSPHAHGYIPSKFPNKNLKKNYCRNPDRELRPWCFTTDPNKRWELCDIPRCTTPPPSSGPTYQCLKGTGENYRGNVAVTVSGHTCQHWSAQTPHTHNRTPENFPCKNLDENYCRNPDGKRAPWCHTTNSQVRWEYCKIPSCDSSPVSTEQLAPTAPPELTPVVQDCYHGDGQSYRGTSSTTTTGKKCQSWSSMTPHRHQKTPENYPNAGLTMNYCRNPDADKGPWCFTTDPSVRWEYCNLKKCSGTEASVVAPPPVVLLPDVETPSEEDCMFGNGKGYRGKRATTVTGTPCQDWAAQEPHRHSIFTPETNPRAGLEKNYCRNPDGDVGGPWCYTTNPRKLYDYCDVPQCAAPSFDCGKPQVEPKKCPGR

CC(C)C[C@H](NC(=O)OC1CCN(C(=O)OC(C)(C)C)CC1)C(=O)N[C@@H](C[C@@H]1CCNC1=O)C(O)S(=O)(=O)[O-].[Na+] (some centres unmarked) [GC868]
No or minimal inhibition: inhibition of Factor Xa (Factor Xa) | inhibition of plasmin (plasmin) | inhibition of trypsin (trypsin) | inhibition of thrombin (thrombin) | inhibition of α-chymotrypsin (α-chymotrypsin)
